In US10584159B2, “Renilla based biosensors for monitoring biomolecule localization and trafficking in cells” (The Royal Institution for the Advancement of …, priority 2014, dated 2020):
Starred links: 1 amine or outer side, 2 acyl side, 3 side chain; linkers in the order of their positions; H or OH if unused. Positions of bridges follow the written chain, without caps; N, C: chain ends. Non-standard residues stand in square brackets, D forms with d. Residues, ends and D or L forms follow the SMILES beside them. No end group written: not given here. *: point of attachment. Leu(3R-OH,Nα-propionyl) = CCC(=O)N[C@H](C(=O)*)[C@H](O)C(C)C; X1 = CC(C)[C@@H](O[*:3])[C@H](N[*:1])C(=O)[*:2]; NMeT = CN[C@H](C(=O)O)[C@@H](C)O; dPhLac = O=C(O)[C@H](O)Cc1ccccc1; NMeA = CN[C@@H](C)C(=O)O; NMeDha = C=C(NC)C(=O)O

Legend:
AT1R [1] = molecular target: T1, AT1R (Homo sapiens, UniProt P30556); assay: PKN-based RhoA activation BRET assay (PKN-crib-RlucII/rGFP-CAAX) with AT1R; assay type: cell-based
T1 construct: expressed in transfected cells; host or cells: HEK293SL
T1 sequence (P30556 1-359): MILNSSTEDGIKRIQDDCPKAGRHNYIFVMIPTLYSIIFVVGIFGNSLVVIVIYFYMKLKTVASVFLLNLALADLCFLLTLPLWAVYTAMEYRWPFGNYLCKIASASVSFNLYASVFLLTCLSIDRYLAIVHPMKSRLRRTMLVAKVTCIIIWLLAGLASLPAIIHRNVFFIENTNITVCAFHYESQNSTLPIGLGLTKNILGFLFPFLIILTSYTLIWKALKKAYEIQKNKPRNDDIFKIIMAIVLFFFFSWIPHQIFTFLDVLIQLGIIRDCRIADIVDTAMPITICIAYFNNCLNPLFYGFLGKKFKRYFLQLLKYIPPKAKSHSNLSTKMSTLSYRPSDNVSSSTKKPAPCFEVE
Procedure: (§1) BRET measurements for FIGS. 1B to 9D, 25D to 25F. The following day of transfection, cells were detached and replated onto poly-ornithine coated white 96-well plate at a density of 25,000 cells per well. The next day, cells were washed once with pre-warmed Tyrode's buffer (140 mM NaCl, 2.7 mM KCl, 1 mM CaCl2, 12 mM NaHCO3, 5.6 mM D-glucose, 0.5 mM MgCl2, 0.37 mM NaH2PO4, 25 mM HEPES, pH 7.4), and then stimulated with either various concentrations of ligands in Tyrode's buffer for the indicated time, or single concentration of ligands for various times at 37° C. For recycling experiment, after stimulating the cells with the ligands for 30 min at 37° C., they were washed either three times with ice-cold Tyrode's buffer or once with Tyrode's buffer/three times with acid (50 mM sodium citrate, pH 4.0)/two times with Tyrode's buffer. All the washing steps were performed on ice. […] The cell-permeable substrate, coelenterazine 400a was added at a final concentration of 5 μM in Tyrode's buffer 3-4 min before BRET measurements. […] The BRET signal was determined by calculating the ratio of the light intensity emitted by the GFP10 or rGFP over the light intensity emitted by the RlucII. All the BRET measurements were performed in triplicate at 37° C.
PKN-based RhoA activation assay. For FIGS. 25B-D, HEK293SL cells were grown in DMEM supplemented with 6% fetal bovine serum (FBS) and 20 μg/ml gentamycin, at 37° C. Cells were seeded at a density of 7.5×10^5 cells per 100 mm dishes and were transiently transfected the next day with constructs encoding AT1R (3 μg) along with PKN-crib-RlucII (90 ng) and rGFP-CAAX (480 ng) using calcium phosphate method as described previously. After 24 h, cells were detached and seeded onto poly-ornithine-coated 96-well white plates at a density of 25 000 cells per well in media. The next day, cells were washed once with Tyrode's buffer and left in 80 μl of Tyrode's buffer at 37° C. When indicated, cells were treated with Ubo-Qic 100 nM for 30 min or C3 toxin for 3 μg/ml (in FIG. 25I), 4 hours at 37° C. Cell stimulation and BRET measurements were done at RT. BRET signals were monitored by addition of Coel-400a to a final concentration of 5 μM using a Synergy2 (BioTek®) microplate reader. […] For FIG. 25B, a transfection mix of 200 ng of TPαR, 20 ng PKN-RlucII, 600 ng CAAX-rGFP, complemented to 2 μg with ssDNA and PEI at a ratio of PEI:DNA of 3:1, is added to 3 ml of Hek293SL (350 000 cells/ml). Cells were seeded on poly-D-lysine pretreated plates. […] Cells were stimulated for 2 min with the indicated doses of U46619. […] For FIGS. 25I and J, a transfection mix of 200 ng of TPαR, 20 ng PKN-RlucII, 600 ng CAAX-rGFP, complemented to 2 μg with ssDNA and PEI at a ratio of PEI:DNA of 3:1, is added to 3 ml of Hek293SL (350,000 cells/ml). Cells were seeded on poly-D-lysine pretreated plates. 24 h post-transfection, the Rho inhibitor (CT04; Cytoskeleton, Inc) was added when indicated, overnight at final concentration 2 μg/ml. 48 h post-transfection, cells were washed and preincubated in Tyrode +1 mM CaCl2 at 37° C. for 60 min then treated, as indicated, with 100 nM of U46619 or 1 μg/ml of Rho activator II (CN03; Cytoskeleton, Inc) for 1 min at 37° C. […] BRET was measured at 37° C., using a Tristar Microplate Reader (Berthold Technologies).

AT1R [2] = molecular target: T2, AT1R (Homo sapiens, UniProt P30556); assay: AT1R sorting to rab4 vesicles BRET (AT1R-RlucII/rGFP-rab4); assay type: cell-based; parameters: expressed in transfected cells; host or cells: HEK293SL (HEK293 for the screen)
T2 sequence (P30556 with tags, fused parts or gaps): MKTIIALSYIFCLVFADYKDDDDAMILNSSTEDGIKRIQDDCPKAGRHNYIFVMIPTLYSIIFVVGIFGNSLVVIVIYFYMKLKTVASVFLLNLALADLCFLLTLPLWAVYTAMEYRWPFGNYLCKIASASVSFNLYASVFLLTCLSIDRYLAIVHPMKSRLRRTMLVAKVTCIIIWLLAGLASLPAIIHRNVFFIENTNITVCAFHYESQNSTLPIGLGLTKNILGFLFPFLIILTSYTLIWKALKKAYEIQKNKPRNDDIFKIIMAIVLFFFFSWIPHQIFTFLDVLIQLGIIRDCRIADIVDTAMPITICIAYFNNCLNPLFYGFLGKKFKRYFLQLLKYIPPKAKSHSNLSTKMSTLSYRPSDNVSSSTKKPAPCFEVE
Procedure: as §1

Compound | impact of Gq inhibition on ligand-mediated Rho activation (AT1R [1]; 100 nM Ubo-Qic 30 min, ligand 4 min) | time at which BRET signal plateaued (AT1R [2]; 100 nM AngII, 100 nM SI, 1 μM DVG) | effect on AngII-mediated BRET increase (Rho sensor) (AT1R [1]; 100 nM Ubo, 100 nM AngII 70 s) | effect on AngII-bound AT1R in Rab4 vesicles (AT1R [2]; 100 nM Ubo, 100 nM AngII 10 min)
DRVYVHPG [DVG, [Asp^1,Val^5, Gly^8]-AngII] | did not affect | 10 min | – | –
C=C1C(=O)N[C@@H](C)C(=O)N(C)[C@@H](C)C(=O)N[C@@H]([C@H](OC(=O)[C@@H](NC(=O)CC)[C@H](O)C(C)C)C(C)C)C(=O)N(C)[C@@H]([C@@H](C)OC)C(=O)O[C@H](C(C)C)[C@H](NC(C)=O)C(=O)O[C@H](Cc2ccccc2)C(=O)N1C [Ubo-QIC] (Ac-[X1][dPhLac][NMeDha]A[NMeA][X1](Leu(3R-OH,Nα-propionyl))[NMeT](Me); ester 1-C) | – | – | partially blocked | increased AngII-bound AT1R in Rab 4 and Rab11 vesicles
